Test results reported in patent EP0454367B1, “Growth hormone releasing factor analogs” (ELI LILLY AND COMPANY, priority 1990, dated 1991).
Starred links: 1 amine or outer side, 2 acyl side, 3 side chain; linkers in the order of their positions; H or OH if unused. Non-standard residues stand in square brackets, D forms with d. Residues, ends and D or L forms follow the SMILES beside them. *: point of attachment. X3 = O=C([C@H](Cc1ccc(O)cc1)N(CC(O)CO)[*:1])[*:2]; X2 = C[C@@H](C(=O)[*:2])N(CC(O)CO)[*:1]; X1 = O=C([C@@H]1CCCN1CC(O)CO)*; NMeA = CN[C@@H](C)C(=O)O

Target: T1, Rat Pituitary Cells (Rattus norvegicus, UniProt Q02644)
T1 sequence (Q02644 23-464): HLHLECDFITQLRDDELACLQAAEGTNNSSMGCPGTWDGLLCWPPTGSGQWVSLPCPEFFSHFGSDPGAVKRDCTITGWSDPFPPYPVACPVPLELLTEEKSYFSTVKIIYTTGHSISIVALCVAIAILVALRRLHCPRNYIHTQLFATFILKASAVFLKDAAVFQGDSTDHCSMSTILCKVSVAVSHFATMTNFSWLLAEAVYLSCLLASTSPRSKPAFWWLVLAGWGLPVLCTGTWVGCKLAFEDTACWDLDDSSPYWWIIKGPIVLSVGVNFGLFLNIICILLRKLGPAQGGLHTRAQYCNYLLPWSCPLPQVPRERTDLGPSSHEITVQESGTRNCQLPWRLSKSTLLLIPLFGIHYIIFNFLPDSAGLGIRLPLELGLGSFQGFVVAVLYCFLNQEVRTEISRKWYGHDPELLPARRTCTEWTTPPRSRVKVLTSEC
Assay: GRF-analog mediated GH secretion from rat pituitary cells (method of Heiman et al.)
Assay type: cell-based
Conditions: EC50 [R^12,T^15,R^21,L^27]hGRF(1-29)NH2 / EC50 analog
Method: The polypeptide compounds of the invention may be assayed in numerous systems. One in vivo assay is carried out in sodium pentobarbital-anesthetized rats. Wehrenberg et al., Biochem. Biophys. Res. Commun. 109:382 (1982). Growth hormone release is measured in vitro with rat anterior pituitary cells. Heiman et al., Endocrinol. 116:410 (1985). Assays are also performed in wether lambs as described in the Examples provided hereinafter.
Various bGRF peptide analogs were synthesized by the solid phase synthesis method as described in U.S. Patent 4,617,149. The compounds were assayed in rat pituitary cells by the method of Heiman et al., Endocrinol. 116:410 (1985). The analogs are based on the sequence of the first 29 amino acids of human growth hormone releasing factor with the substitutions listed.

Relative Potency (% of std) | Structure (SMILES)
.8 % of std | CC[C@H](C)[C@H](NC(=O)[C@H](C)NC(=O)[C@H](CC(=O)O)NC(=O)[C@H](C)NC(=O)[C@H](Cc1ccc(O)cc1)NCC(O)CO)C(=O)N[C@@H](Cc1ccccc1)C(=O)N[C@H](C(=O)N[C@@H](CC(N)=O)C(=O)N[C@@H](CO)C(=O)N[C@@H](Cc1ccc(O)cc1)C(=O)N[C@@H](CCCNC(=N)N)C(=O)N[C@@H](CCCNC(=N)N)C(=O)N[C@H](C(=O)N[C@@H](CC(C)C)C(=O)N[C@H](C(=O)N[C@@H](CCC(N)=O)C(=O)N[C@@H](CC(C)C)C(=O)N[C@@H](CO)C(=O)N[C@@H](C)C(=O)N[C@@H](CCCNC(=N)N)C(=O)N[C@@H](CCCNC(=N)N)C(=O)N[C@@H](CC(C)C)C(=O)N[C@@H](CC(C)C)C(=O)N[C@@H](CCC(N)=O)C(=O)N[C@@H](CC(=O)O)C(=O)N[C@H](C(=O)N[C@@H](CC(C)C)C(=O)N[C@@H](CO)C(=O)N[C@@H](CCCNC(=N)N)C(N)=O)[C@@H](C)CC)[C@@H](C)O)C(C)C)[C@@H](C)O (some centres unmarked) [DHP[R^12,T^15,R^21,L^27]hGRF(1-29)NH2] (H-[X3]ADAIFTNSYRRVLTQLSARRLLQDILSR-NH2)
.14 % of std | CC[C@H](C)[C@H](NC(=O)[C@H](C)NC(=O)[C@H](CC(=O)O)NC(=O)[C@H](C)NC(=O)[C@H](Cc1ccc(O)cc1)NC(=O)[C@@H]1CCCN1C(=O)[C@@H]1CCCN1CC(O)CO)C(=O)N[C@@H](Cc1ccccc1)C(=O)N[C@H](C(=O)N[C@@H](CC(N)=O)C(=O)N[C@@H](CO)C(=O)N[C@@H](Cc1ccc(O)cc1)C(=O)N[C@@H](CCCNC(=N)N)C(=O)N[C@@H](CCCNC(=N)N)C(=O)N[C@H](C(=O)N[C@@H](CC(C)C)C(=O)N[C@H](C(=O)N[C@@H](CCC(N)=O)C(=O)N[C@@H](CC(C)C)C(=O)N[C@@H](CO)C(=O)N[C@@H](C)C(=O)N[C@@H](CCCNC(=N)N)C(=O)N[C@@H](CCCNC(=N)N)C(=O)N[C@@H](CC(C)C)C(=O)N[C@@H](CC(C)C)C(=O)N[C@@H](CCC(N)=O)C(=O)N[C@@H](CC(=O)O)C(=O)N[C@H](C(=O)N[C@@H](CC(C)C)C(=O)N[C@@H](CO)C(=O)N[C@@H](CCCNC(=N)N)C(N)=O)[C@@H](C)CC)[C@@H](C)O)C(C)C)[C@@H](C)O (some centres unmarked) [DHP[P^-1,P^0,R^12,T^15,R^21,L^27]hGRF(1-29)NH2] (X1-PYADAIFTNSYRRVLTQLSARRLLQDILSR-NH2)
.13 % of std | CC[C@H](C)[C@H](NC(=O)[C@H](C)NC(=O)[C@H](CC(=O)O)NC(=O)[C@H](C)NC(=O)[C@H](Cc1ccc(O)cc1)NC(=O)[C@@H]1CCCN1CC(O)CO)C(=O)N[C@@H](Cc1ccccc1)C(=O)N[C@H](C(=O)N[C@@H](CC(N)=O)C(=O)N[C@@H](CO)C(=O)N[C@@H](Cc1ccc(O)cc1)C(=O)N[C@@H](CCCNC(=N)N)C(=O)N[C@@H](CCCNC(=N)N)C(=O)N[C@H](C(=O)N[C@@H](CC(C)C)C(=O)N[C@H](C(=O)N[C@@H](CCC(N)=O)C(=O)N[C@@H](CC(C)C)C(=O)N[C@@H](CO)C(=O)N[C@@H](C)C(=O)N[C@@H](CCCNC(=N)N)C(=O)N[C@@H](CCCNC(=N)N)C(=O)N[C@@H](CC(C)C)C(=O)N[C@@H](CC(C)C)C(=O)N[C@@H](CCC(N)=O)C(=O)N[C@@H](CC(=O)O)C(=O)N[C@H](C(=O)N[C@@H](CC(C)C)C(=O)N[C@@H](CO)C(=O)N[C@@H](CCCNC(=N)N)C(N)=O)[C@@H](C)CC)[C@@H](C)O)C(C)C)[C@@H](C)O (some centres unmarked) [DHP[P^0,R^12,T^15,R^21,L^27]hGRF(1-29)NH2] (X1-YADAIFTNSYRRVLTQLSARRLLQDILSR-NH2)
.17 % of std | CC[C@H](C)[C@H](NC(=O)[C@H](C)NC(=O)[C@H](CC(=O)O)NC(=O)[C@H](C)NC(=O)[C@H](Cc1ccc(O)cc1)NC(=O)[C@H](C)NC)C(=O)N[C@@H](Cc1ccccc1)C(=O)N[C@H](C(=O)N[C@@H](CC(N)=O)C(=O)N[C@@H](CO)C(=O)N[C@@H](Cc1ccc(O)cc1)C(=O)N[C@@H](CCCNC(=N)N)C(=O)N[C@@H](CCCNC(=N)N)C(=O)N[C@H](C(=O)N[C@@H](CC(C)C)C(=O)N[C@H](C(=O)N[C@@H](CCC(N)=O)C(=O)N[C@@H](CC(C)C)C(=O)N[C@@H](CO)C(=O)N[C@@H](C)C(=O)N[C@@H](CCCNC(=N)N)C(=O)N[C@@H](CCCNC(=N)N)C(=O)N[C@@H](CC(C)C)C(=O)N[C@@H](CC(C)C)C(=O)N[C@@H](CCC(N)=O)C(=O)N[C@@H](CC(=O)O)C(=O)N[C@H](C(=O)N[C@@H](CC(C)C)C(=O)N[C@@H](CO)C(=O)N[C@@H](CCCNC(=N)N)C(N)=O)[C@@H](C)CC)[C@@H](C)O)C(C)C)[C@@H](C)O [[N-Me-A^0,R^12,T^15,R^21,L^27]hGRF(1-29)NH2] (H-[NMeA]YADAIFTNSYRRVLTQLSARRLLQDILSR-NH2)
.335 % of std | CC[C@H](C)[C@H](NC(=O)[C@H](C)NC(=O)[C@H](CC(=O)O)NC(=O)[C@H](C)NC(=O)[C@H](Cc1ccc(O)cc1)NC(=O)[C@H](C)NCC(O)CO)C(=O)N[C@@H](Cc1ccccc1)C(=O)N[C@H](C(=O)N[C@@H](CC(N)=O)C(=O)N[C@@H](CO)C(=O)N[C@@H](Cc1ccc(O)cc1)C(=O)N[C@@H](CCCNC(=N)N)C(=O)N[C@@H](CCCNC(=N)N)C(=O)N[C@H](C(=O)N[C@@H](CC(C)C)C(=O)N[C@H](C(=O)N[C@@H](CCC(N)=O)C(=O)N[C@@H](CC(C)C)C(=O)N[C@@H](CO)C(=O)N[C@@H](C)C(=O)N[C@@H](CCCNC(=N)N)C(=O)N[C@@H](CCCNC(=N)N)C(=O)N[C@@H](CC(C)C)C(=O)N[C@@H](CC(C)C)C(=O)N[C@@H](CCC(N)=O)C(=O)N[C@@H](CC(=O)O)C(=O)N[C@H](C(=O)N[C@@H](CC(C)C)C(=O)N[C@@H](CO)C(=O)N[C@@H](CCCNC(=N)N)C(N)=O)[C@@H](C)CC)[C@@H](C)O)C(C)C)[C@@H](C)O (some centres unmarked) [DHP[A^0,R^12,T^15,R^21,L^27]hGRF(1-29)NH2] (H-[X2]YADAIFTNSYRRVLTQLSARRLLQDILSR-NH2)
